Assay results published in ChEMBL document CHEMBL5550129, “Optimization of benzenesulfonyl derivatives as anti-Trypanosomatidae agents: Structural design, synthesis, and pharmacological assessment against Trypanosoma cruzi and Leishmania infantum” (Bioorg Med Chem, 2024).

Tests used:
Trypanosoma cruzi [1] = assay: Antitrypanosomal activity against Trypanosoma cruzi Tulahuen expressing Escherichia coli beta-galactosidase infected in L929 cells pretreated with parasite for 50 hrs followed by compound addition and measured after 96 hrs; assay type: functional, organism-based
Leishmania infantum [2] = assay: Antileishmanial activity against Leishmania infantum MHOM/BR/1974/PP75 expressing red fluorescence protein infected in THP-1 cells pre-infected for 4 hrs followed by compound addition and measured after 72 hrs by microplate reader assay; assay type: functional, organism-based; details: MHOM/BR/1974/PP75, THP-1
Trypanosoma cruzi [3] = assay: Antitrypanosomal activity against Trypanosoma cruzi; assay type: functional, organism-based
[4] = Cytotoxicity against mouse L929 cells; assay type: toxicity, cell-based
[5] = Selectivity index, ratio of CC50 for mouse L929 cells to IC50 for Trypanosoma cruzi; assay type: toxicity; details: read-out: Ratio CC50/IC50
Leishmania infantum [6] = assay: Antileishmanial activity against Leishmania infantum; assay type: functional, organism-based
Leishmania braziliensis [7] = assay: Antileishmanial activity against Leishmania braziliensis; assay type: functional, organism-based
[8] = Cytotoxicity against human THP-1 cells; assay type: toxicity, cell-based
[9] = Selectivity index, ratio of CC50 for human THP-1 cells to IC50 for Leishmania infantum; assay type: toxicity; details: read-out: Ratio CC50/IC50
[10] = Selectivity index, ratio of CC50 for human THP-1 cells to IC50 for Leishmania braziliensis; assay type: toxicity; details: read-out: Ratio CC50/IC50
[11] = Cytotoxicity against human THP-1 cells incubated for 72 hrs by Alamar blue assay; assay type: toxicity, cell-based
[12] = Cytotoxicity against mouse L929 cells incubated for 96 hrs by Alamar blue assay; assay type: toxicity, cell-based
[13] = Selectivity index, ratio of CC50 for mouse L929 cells to IC50 for Trypanosoma cruzi Tulahuen expressing Escherichia coli beta-galactosidase infected in L929 cells; assay type: toxicity; details: read-out: Ratio CC50/IC50
[14] = Selectivity index, ratio of CC50 for human THP-1 cells to IC50 for Leishmania infantum MHOM/BR/1974/PP75 expressing red fluorescence protein infected in THP-1 cells; assay type: toxicity, cell-based; details: read-out: Ratio CC50/IC50
Leishmania braziliensis [15] = assay: Antileishmanial activity against Leishmania braziliensis MHOM/BR/75/M2904 expressing red fluorescence protein infected in THP-1 cells pre-infected for 4 hrs followed by compound addition and measured after 72 hrs by microplate reader assay; assay type: functional, organism-based; details: MHOM/BR/75/M2904, THP-1
[16] = Selectivity index, ratio of CC50 for human THP-1 cells to IC50 for Leishmania braziliensis MHOM/BR/75/M2904 expressing red fluorescence protein infected in THP-1 cells; assay type: toxicity, cell-based; details: read-out: Ratio CC50/IC50

Row | IC50 (Trypanosoma cruzi [1]) | IC50 (Leishmania infantum [2]) | IC50 (Leishmania braziliensis [15]) | Structure (SMILES) | CC50 at 72 h [11] | CC50 at 96 h [12] | selectivity ratio [13] | selectivity ratio [14] | also measured
1 | > 200 µM | > 100 µM | – | O=S(=O)(c1ccc(F)cc1)N1CCN(c2ccccc2)CC1 | – | – | – | – | –
2 | – | – | – | O=S(=O)(c1ccc(Cl)cc1)N1CCNCC1 | – | – | – | – | IC50 (Trypanosoma cruzi [3]): 3.7 µM; CC50 [4]: 227 µM; selectivity ratio [5]: 61; IC50 (Leishmania infantum [6]): 5 µM; IC50 (Leishmania braziliensis [7]): 4.5 µM; CC50 [8]: 1250 µM; selectivity ratio [9]: > 250; selectivity ratio [10]: > 250
3 | > 200 µM | > 100 µM | – | Nc1ccc(C(=O)N2CCN(S(=O)(=O)c3ccc(Cl)cc3)CC2)cc1 | > 1000 µM | – | – | – | –
4 | 28 µM | > 100 µM | – | CN(C)CCOc1ccc(N2CCN(S(=O)(=O)c3ccccc3)CC2)cc1 | 650 µM | 91.2 µM | 3 | < 7 | –
5 | 65.9 µM | 35.7 µM | – | CN(C)CCNc1ccc(C(=O)N2CCN(S(=O)(=O)c3ccc(Cl)cc3)CC2)cn1 | 388 µM | 395 µM | 6 | 11 | –
6 | > 200 µM | 36.4 µM | – | N#Cc1ccc(C(=O)N2CCN(S(=O)(=O)c3ccc(Cl)cc3)CC2)cc1 | > 1000 µM | – | – | – | –
7 | 13.4 µM | 29.6 µM | 29.6 µM | COc1ccc(OC)c(S(=O)(=O)N2CCN(c3ccc(OCCN(C)C)cc3)CC2)c1 | 141 µM | 274 µM | 20 | 5 | selectivity ratio [16]: 5
8 | 3.7 µM | 43.3 µM | – | CN(C)CCOc1ccc(N2CCN(S(=O)(=O)c3ccccc3Br)CC2)cc1 | 161 µM | 10 µM | 3 | 4 | –
9 | 145 µM | 35.9 µM | – | O=C(c1ccc(-n2cnnn2)cc1)N1CCN(S(=O)(=O)c2ccc(Cl)cc2)CC1 | > 1000 µM | – | – | – | –
10 | 137 µM | 0.6 µM | 4.4 µM | CN(C)CCOc1cccc(C(=O)N2CCN(S(=O)(=O)c3ccc(Cl)cc3)CC2)c1 | – | – | – | – | –
11 | 4.3 µM | 37.5 µM | – | CN(C)CCOc1ccc(N2CCN(C(=O)c3ccc(Cl)cc3)CC2)cc1 | > 1000 µM | 339 µM | 79 | > 27 | –
12 | 7.1 µM | 25.1 µM | 70.5 µM | COc1ccc(S(=O)(=O)N2CCN(c3ccc(OCCN(C)C)cc3)CC2)cc1 | 388 µM | 354 µM | 50 | 16 | selectivity ratio [16]: 6
13 | 1.7 µM | 62.9 µM | – | CN(C)CCOc1ccc(N2CCN(S(=O)(=O)c3ccc([N+](=O)[O-])cc3)CC2)cc1 | 343 µM | 302 µM | 178 | 6 | –
14 | 2.2 µM | > 100 µM | – | Cc1ccc(S(=O)(=O)N2CCN(c3ccc(OCCN(C)C)cc3)CC2)cc1 | 298 µM | 289 µM | 136 | < 3 | –
15 | 108 µM | 0.8 µM | 0.7 µM | N#CCOc1ccc(C(=O)N2CCN(S(=O)(=O)c3ccc(Cl)cc3)CC2)cc1 | 371 µM | – | – | 453 | selectivity ratio [16]: 516
16 | > 200 µM | > 100 µM | – | NCCOc1ccc(C(=O)N2CCN(S(=O)(=O)c3ccc(Cl)cc3)CC2)cc1 | 911 µM | – | – | – | –
17 | 137 µM | 4.6 µM | 41.7 µM | CN(C)CCOc1cccc(N2CCN(S(=O)(=O)c3ccc(Cl)cc3)CC2)c1 | 170 µM | – | – | 37 | selectivity ratio [16]: 4
18 | 9.8 µM | > 100 µM | – | O=C(c1ccc(N2CCNCC2)nc1)N1CCN(S(=O)(=O)c2ccc(Cl)cc2)CC1 | 253 µM | 18 µM | 2 | < 3 | –
19 | 7.2 µM | 23.3 µM | 40.3 µM | N#CCOc1ccc(N2CCN(S(=O)(=O)c3ccc(Cl)cc3)CC2)cc1 | 46.6 µM | – | 71 | 2 | selectivity ratio [16]: 1
20 | > 200 µM | 48.8 µM | – | O=C(c1ccc([N+](=O)[O-])cc1)N1CCN(S(=O)(=O)c2ccc(Cl)cc2)CC1 | > 1000 µM | – | – | > 20 | –
21 | 168 µM | 55.2 µM | – | CN(C)CCOc1ccc(N2CCN(S(=O)(=O)c3ccc(N)cc3)CC2)cc1 | > 1000 µM | – | – | > 11 | –
22 | 13.8 µM | 0.9 µM | 1.4 µM | CN(C)CCOc1ccc(C(=O)N2CCN(S(=O)(=O)c3ccc(Cl)cc3)CC2)cc1 | > 1000 µM | 345 µM | 25 | > 2460 | selectivity ratio [16]: > 714
23 | 8.3 µM | > 100 µM | – | CN(C)CCOc1ccc(N2CCN(S(=O)(=O)c3ccc(Br)cc3)CC2)cc1 | 283 µM | > 427 µM | > 57 | < 3 | –
24 | 6.4 µM | 6.1 µM | 21 µM | CN(C)CCOc1ccc(N2CCN(S(=O)(=O)c3ccc(F)cc3)CC2)cc1 | > 1000 µM | 374 µM | 58 | > 405 | selectivity ratio [16]: 48
25 | 187 µM | > 100 µM | – | CC(=O)Nc1ccc(S(=O)(=O)N2CCN(c3ccc(OCCN(C)C)cc3)CC2)cc1 | > 1000 µM | – | – | – | –
26 | > 200 µM | 10.3 µM | 7.2 µM | CN(C)CCOc1ccccc1C(=O)N1CCN(S(=O)(=O)c2ccc(Cl)cc2)CC1 | > 500 µM | – | – | > 49 | selectivity ratio [16]: > 69.5
27 | 12.6 µM | > 100 µM | – | COc1ccc(Cl)cc1S(=O)(=O)N1CCN(c2ccc(OCCN(C)C)cc2)CC1 | 73.9 µM | 148 µM | 12 | < 1 | –
